Consider 5 molecules from paper PMC5402304, “Oxoaporphine Metal Complexes (Co^II, Ni^II, Zn^II) with High Antitumor Activity by Inducing Mitochondria-Mediated Apoptosis and S-phase Arrest in HepG2” (Scientific Reports, 2017).

The structures appear in SMILES notation. Where two headings read alike, the source gives them in different places.

For one series, the system named is NCI-H460. As to conditions: read-out: Antitumor activity: IC50; cited from earlier work.
For a further series, the system named is Hep-G2. As to conditions: read-out: Antitumor activity: IC50; cited from earlier work.
Another series relates to SK-OV-3. Also noted: method as in PMID 27898051. The following applies: read-out: Antitumor activity: IC50; cited from earlier work.
The next series deals with A2780. Also noted: method as in PMID 20023911. As to conditions: read-out: Antitumor activity: IC50; cited from earlier work.
In another series the test system is HT-29. Also noted: method as in PMID 20023911. As to conditions: read-out: Antitumor activity: IC50; cited from earlier work.
The test system of series [1] is BEL-7404. As to conditions: read-out: Antitumor activity: IC50; cited from earlier work.
The subject of a further series is T-24. In words: MTT cytotoxicity assay, T-24. The class given is cell-based, human. The following applies: for IC50: T-24, 48 h, MTT; for inhibitive ratio: T-24, 20 μmol/L, 48 h. The method, then:
(§1) The in vitro cytotoxicity of OD, 1–3 and the corresponding metal salts were determined by MTT assay towards a panel of human tumor cells including HepG2, T-24, BEL-7404, MGC80-3, SK-OV-3/DDP and normal HL-7702 cells. As the positive control, cisplatin was dissolved at a concentration of 1 mM in 0.154 M NaCl[32].
(§2) The human tumor cell lines (BEL-7404, HepG2, MGC80–3, T-24, SK-OV-3/DDP and HeLa cells) and the human normal liver cell line HL-7702 were obtained from Shanghai Cell Bank in Chinese Academy of Sciences. Cells were cultured in Dulbecco’s modified Eagle’s medium (DMEM) or RPMI-1640 medium, which supplemented with 10% fetal bovine serum (FBS) and 100 U/mL penicillin and streptomycin. Cells were cultured at 37 °C in a humidified atmosphere with 5% CO2/95% air. Tested compounds (2.0 mM) were prepared as DMSO stock solution before they were diluted to working concentrations by PBS buffer (containing 0.5% DMSO), while cisplatin dissolved in 0.9% sodium chloride solution was used as positive controls.
(§3) Cells in their logarithmic phase were seeded in 96-well plates with 5.5 × 10^3/180 μL per well for 24 h. Then 20 μL of compounds at various concentrations were added to each well to achieve final concentrations of 1.25, 2.5, 5.0, 10.0, and 20.0 μM. All the cells were incubated with test compounds for another 48 h before MTT assay. Control wells contained media with 0.5% DMSO. After 48 h of cultivation, 10 μL of MTT (5 mg/mL in PBS) was added to each well, and cells were incubated at 37 °C for 6 h. The contents in the wells were pipetted out carefully, and the formazan crystals formed were dissolved in 100 μL of DMSO, and the absorbance was measured by enzyme labeling instrument with 490 nm/630 nm double wavelength measurement. The IC50 value was defined as a drug concentration killing 50% cells in comparison with untreated controls, which was calculated by the Bliss method (n = 5). All tests were repeated in at least three independent trials.

The next series deals with MGC80-3. In words: MTT cytotoxicity assay, MGC80-3. The class given is cell-based, human. As to conditions: for IC50: MGC80-3, 48 h, MTT; for inhibitive ratio: MGC80-3, 20 μmol/L, 48 h. The method, then:
as §1, §2, §3
(Tetrazolium dyes change colour on reduction, which living cells bring about.)

The subject of series [2] is BEL-7404. The series can be described thus: MTT cytotoxicity assay, BEL-7404. The series is classed as cell-based, human. As to conditions: for inhibitive ratio: BEL-7404, 20 μmol/L, 48 h; for IC50: BEL-7404, 48 h, MTT. As to the method:
as §1, §2, §3

A further series concerns HepG2. The series can be described thus: MTT cytotoxicity assay, HepG2. The series is classed as cell-based, human. As to conditions: for inhibitive ratio: HepG2, 20 μmol/L, 48 h; for IC50: HepG2, 48 h, MTT. As to the method:
as §1, §2, §3

The test system of another series is HL-7702. In words: MTT cytotoxicity assay, normal liver cells HL-7702. The series is classed as cell-based, human. As to conditions: 48 h; for inhibitive ratio: HL-7702, 20 μmol/L; for IC50: HL-7702 normal liver cells, MTT. As to the method:
as §1, §2, §3

For series [3], the system named is HepG2 cells. The series can be described thus: Comet assay for DNA damage. The series is classed as cell-based, human. Also noted: unit not given here. The following applies: HepG2, 1.0 μM, 24 h. As to the method: After the observation of significant S-phase arrest caused by 1–3, the study of DNA damage assay is necessary. The single cell gel electrophoresis technique (comet assay) is a simple, sensitive, reliable, and rapid method to detect DNA damage in eukaryotic cell[39]. As shown in Table 3 and Fig. 6, 1–3 at 1.0 μM induced DNA damage (fragmentation or unwinding) appeared as fluorescent comets with remarkable increase of tails size, especially for 3.
The comet assay is a simple method for measuring DNA strand breaks in cells. The comet assay reagent kit was purchased from Trevigen, and the experiment was carried out according to the manufacturer’s instructions. After treatment with OD and 1–3 at 1.0 μM, HepG2 cells were harvested and suspended at 1 × 10^6 Hep-G2 cells/mL in PBS. The cells suspension was mixed with melted LM agarose at a ratio of 1:10 (v/v). An aliquot (75 μL) of the mixture was immediately pipetted onto the slide (Comet Slide TM). After refrigeration for 30 min, the slide was immersed in pre-chilled lysis solution and left on ice for 60 min, followed by immersing in freshly prepared alkaline solution (300 mM NaOH, 1 mM EDTA, pH > 13) for 60 min on ice in darkness. After DNA unwinding, the slide was subjected to alkaline solution for electrophoresis in a Savant ps 250 system set at 300 mA and 1 volt/cm for 30 min. After electrophoresis, the slide was rinsed with distilled H2O, fixed in 70% ethanol for 5 min and air-dried overnight. DNA was stained with SYBR Green I (Trevigen) and visualized under a fluorescence microscope (Nikon, Eclipse E600).

Series [4] has as its system HepG2, T-24, BEL-7404, MGC80-3, SK-OV-3/DDP. In words: MTT cytotoxicity assay, panel of human tumor cells. The series is classed as cell-based. As to conditions: 48 h, range over all the tested tumor cells, read-out: inhibition rate. As to the method: as §1, §2
Cells in their logarithmic phase were seeded in 96-well plates with 5.5 × 10^3/180 μL per well for 24 h. […] The contents in the wells were pipetted out carefully, and the formazan crystals formed were dissolved in 100 μL of DMSO, and the absorbance was measured by enzyme labeling instrument with 490 nm/630 nm double wavelength measurement. […]

The test system of the next series is SK-OV-3/DDP. In words: MTT cytotoxicity assay, SK-OV-3/DDP. The series is classed as cell-based, human. As to conditions: for IC50 / inhibitive ratio: 48 h; for IC50: MTT; for inhibitive ratio: SKOV-3/DDP, 20 μmol/L. As to the method: as §1, §2, §3
In series [5] the test system is HepG2 cells. In words: Cell cycle analysis by flow cytometry. As to conditions: HepG2, 0.5 and 1.0 μM, 24 h, compared to untreated cells. The class given is cell-based, human. The method, then:
With the high cytotoxicity in vitro, HepG2 cells were selected to investigate the cell cycle treated with 1–3 (0.125, 0.25 and 0.5 μM) and OD (0.5 and 1.0 μM) for 24 h. […] However, 1–3 induced a significant increase of S-phase cell population in a dose-dependent manner.
Cell cycle progression and apoptosis were determined by flow cytometric analysis. (a) Cell cycle arrest assay: HepG2 cells in their logarithmic phase were plated into 50 mL plates at a final density of 5−6 × 10^6 cells/well overnight, then they were treated with various doses (0.25, 0.5 and 1.0 μM) of 1–3 for another 24 h. Cells were trypsinized, collected, and fixed in ice-cold 75% ethanol at −20 °C overnight. After centrifugation, the fixed cells were rinsed with ice-cold phosphate buffered saline (PBS), and resuspended in 0.5 mL of PBS containing 100 μg/mL RNase, 50 μg/mL propidium iodide (PI) in the dark for 5−10 min. The cell cycle distribution was analyzed by FACS Calibur flow cytometer (BD) and calculated using ModFIT LT software. (b) Apoptosis assay: 1 × 10^5 HepG2 cells were plated in 6-well plates, after incubation for 24 h with complexes 1–3 at 1.0, 2.0 and 5.0 μM, cells were collected, and Apoptosis Detection kit FITC Annexin V was used to analyze the cell apoptosis according to the manufacturer’s instructions.

The next series relates to HepG2 xenograft. The series can be described thus: HepG2 xenograft nude mice model, tumor growth inhibition. The series is classed as in vivo, BALB/c nude mice. As to conditions: 2.0 mg/kg ip every two days.
The nature of series [6]: Body weight of mice in the HepG2 xenograft model. The series is classed as in vivo, BALB/c nude mice. As to conditions: 2.0 mg/kg ip every two days; permissible value 20%. As to the method:
To further evaluate the in vivo antitumor efficacy of these complexes, 3 was selected to inhibit tumor growth in a HepG2 xenografts model. The mice were randomized into control group, 3-treated groups and positive control group (n = 6). Once the tumor had grown to an average volume of about 100 mm^3, two group of nude mice were injected intraperitoneally (ip) of 3 at a high dose (6.0 mg/kg) and a low (3.0 mg/kg) dose daily for 20 days, respectively. Cisplatin was used as positive control injected at 2.0 mg/kg every two days, while control group received solvents only.
BALB/c nude mice (male, 17–20 g, 5–6 weeks old) were supplied by Guangxi Medical University Laboratory Animal Centre (Guangxi, China, approval no. SCXK 2014–0002 and SYXK 2014–0003). All of the experimental procedures were carried out according to the NIH Guidelines for the Care and Use of Laboratory Animals. Animal experiments were approved by the Animal Care and Use Committee of Guangxi Medical University. Animal were housed at IVC system (individual ventilated caging) with conditions of constant photoperiod (12 h light/12 h dark at 25−28 °C and 45−65% humidity). The xenograft tumor model was established in the same way as we reported before. […]
The tumor volumes and body weight were measured every 3 days, and tumor size was calculated as volume = (w^2l)/2, where w is the width and l is the length in mm of tumor[70]. […]

Take `Nc1cccc2c1C(=O)c1cccc3ccnc-2c13.[Cl][Ni][Cl]` [Complex C00005]: the IC50 (usually the point on the concentration scale where inhibition reaches its midpoint) in the series with NCI-H460 is 15.6 µM; with Hep-G2, 18.2 µM; in the series on SK-OV-3 it was 15 µM.
For the molecule `Nc1c(Cl)ccc2c1-c1nccc3cccc(c13)C2=O.[Cl][Ni][Cl]` [Complex C00006], the IC50 in the series with NCI-H460 is 35.2 µM; in the series on Hep-G2, 28.8 µM; in the series with SK-OV-3, 29.1 µM.
For the molecule `O=C1c2ccccc2-c2c3c(cc4ccnc1c24)OCO3.O=C1c2ccccc2-c2c3c(cc4ccnc1c24)OCO3.[Cl][Zn][Cl].[Cl][Zn][Cl]` [Complex C00008], the figures for the IC50 in the series on A2780, in the series on HT-29 and in the series on BEL-7404 [1] were 6.7 µM, 5.8 µM and 8.4 µM, respectively.
Turning to `COc1cc2c(cc1O)C(=O)c1nccc3cc(OC(C)C)c(OC)c-2c13` [OD], the concentration for half-maximal inhibition (IC50) with T-24 (Homo sapiens) turned out to be 9.12 ± 0.11 µM; with MGC80-3 (Homo sapiens, MGC-803) it was 23.3 ± 0.88 µM; with BEL-7404 [2] (Homo sapiens), 24.8 ± 1.02 µM; with HepG2 (Homo sapiens) it was 8.98 ± 0.76 µM; in the series on HL-7702 (Homo sapiens, L02) it was 9.28 ± 0.43 µM; in the series on SK-OV-3/DDP (Homo sapiens, SK-OV-3/DDP) it was 38.5 ± 1.42 µM. The inhibitive ratio is on record as 46.91±0.17% in the series with T-24; 42.28±0.24% in the series with MGC80-3; 36.28±0.18% in the series with BEL-7404 [2]; 33.35±0.32% with HepG2; 46.55±0.67% in the series on HL-7702; 45.57±1.94% in the series with SK-OV-3/DDP. In the series on HepG2 cells [3], this molecule gave a Comet length of 49.45 ± 6.19. In addition, the Olive tail moment in the series with HepG2 cells [3] is 0.13 ± 0.29. Also, the Tail length with HepG2 cells [3] turned out to be 1.96 ± 1.78. Also, the Tail moment with HepG2 cells [3] is 0.12 ± 0.21. In series [4], the inhibition (in general, the share of the control response that was lost under treatment) at 20 µM fell in the range of 33 to 47%. Further, the “folds higher cytotoxicity than cisplatin” value in the series with SK-OV-3/DDP (SK-OV-3/DDP, ratio of IC50) is reported as 2 folds. In addition, the “effect on the population of the cell cycle” value with HepG2 cells [5] is on record as “barely change the population of the cell cycle”.
Regarding `N.N.[Cl][Pt][Cl]` [cisplatin, reference compound], the inhibitive ratio with T-24 was 75.26±1.00%; with MGC80-3 it was 65.58±0.09%; with BEL-7404 [2] it was 76.07±2.68%; in the series on HepG2, 71.93±0.83%; with HL-7702 it was 68.96±1.34%; with SK-OV-3/DDP, 15.13±0.07%. The IC50 with T-24 was determined as 7.48 ± 0.26 µM; with MGC80-3 it was 16 ± 1.53 µM; with BEL-7404 [2] it was 10 ± 0.53 µM; in the series on HepG2 it was 7.72 ± 0.83 µM; with HL-7702, 5.18 ± 0.68 µM; in the series on SK-OV-3/DDP (SK-OV-3/DDP) it was 66 ± 1.53 µM. For the same molecule, the “IR (tumor weight inhibition rate)” value in the series with HepG2 xenograft is 65.8%. Moreover, the “drop in body weight” value in series [6] turned out to be 25.8%.
